Among the data in ChEMBL document CHEMBL1201862, “PubChem BioAssay data set” (2004) are IC50 values, retold here.

SMILES strings stand for the structures. Active and inactive are the calls of the source. No stated cut-off is given here; in the data, actives have a measured IC50 and inactives only a lower limit.

Common to all, as to type: functional
For assay [1], the target named is T1, Sentrin-specific protease 6 (Homo sapiens, UniProt Q9GZR1).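 Further: Luminescence-based dose-response confirmatory assay of SENP6 inhibition, following up an ultra-high-throughput screen.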
T1 sequence (Q9GZR1 whole entry): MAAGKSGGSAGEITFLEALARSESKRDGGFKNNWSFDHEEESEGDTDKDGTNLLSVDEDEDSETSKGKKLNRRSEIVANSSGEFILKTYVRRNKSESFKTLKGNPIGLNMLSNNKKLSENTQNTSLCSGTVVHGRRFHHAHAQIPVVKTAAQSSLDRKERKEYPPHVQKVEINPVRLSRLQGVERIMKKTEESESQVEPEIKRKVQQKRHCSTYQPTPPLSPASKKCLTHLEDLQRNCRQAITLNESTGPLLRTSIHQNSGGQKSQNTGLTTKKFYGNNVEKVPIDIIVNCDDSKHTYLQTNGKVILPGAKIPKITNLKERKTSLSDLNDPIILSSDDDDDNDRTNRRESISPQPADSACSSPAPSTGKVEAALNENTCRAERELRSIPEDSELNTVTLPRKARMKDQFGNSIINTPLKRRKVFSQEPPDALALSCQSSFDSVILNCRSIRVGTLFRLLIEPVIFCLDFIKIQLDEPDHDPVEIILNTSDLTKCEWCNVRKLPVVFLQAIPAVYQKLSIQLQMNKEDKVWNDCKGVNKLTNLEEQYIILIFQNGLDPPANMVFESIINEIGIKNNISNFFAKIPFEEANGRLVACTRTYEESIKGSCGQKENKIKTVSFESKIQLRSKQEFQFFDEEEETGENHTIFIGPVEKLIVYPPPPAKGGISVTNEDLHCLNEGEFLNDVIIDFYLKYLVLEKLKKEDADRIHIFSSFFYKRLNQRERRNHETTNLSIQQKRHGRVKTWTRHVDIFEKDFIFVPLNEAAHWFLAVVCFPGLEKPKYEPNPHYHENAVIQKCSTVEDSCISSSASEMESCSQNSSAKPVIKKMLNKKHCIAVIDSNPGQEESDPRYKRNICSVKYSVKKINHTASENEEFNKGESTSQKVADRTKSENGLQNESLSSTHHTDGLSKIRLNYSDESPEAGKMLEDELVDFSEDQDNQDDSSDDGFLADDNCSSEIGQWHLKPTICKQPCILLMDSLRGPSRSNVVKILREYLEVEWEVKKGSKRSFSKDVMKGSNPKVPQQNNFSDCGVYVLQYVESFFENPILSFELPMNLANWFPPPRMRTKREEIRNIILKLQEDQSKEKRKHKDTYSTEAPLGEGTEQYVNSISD

The target in assay [2] is T2, Sentrin-specific protease 8 (Homo sapiens, UniProt Q96LD8).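 Further: luminescence read-out of SENP8 inhibition, dose-response confirmation following an ultra-high-throughput screen.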
T2 sequence (Q96LD8 whole entry): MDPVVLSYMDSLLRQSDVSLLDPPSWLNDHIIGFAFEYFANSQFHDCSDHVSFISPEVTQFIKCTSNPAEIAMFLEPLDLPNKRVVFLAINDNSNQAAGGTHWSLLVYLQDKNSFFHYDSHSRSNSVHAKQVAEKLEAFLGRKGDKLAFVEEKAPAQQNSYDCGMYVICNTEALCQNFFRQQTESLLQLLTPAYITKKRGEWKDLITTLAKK

A further assay deals with T3, Caspase-3 (Homo sapiens, UniProt P42574).
T3 sequence (P42574 whole entry): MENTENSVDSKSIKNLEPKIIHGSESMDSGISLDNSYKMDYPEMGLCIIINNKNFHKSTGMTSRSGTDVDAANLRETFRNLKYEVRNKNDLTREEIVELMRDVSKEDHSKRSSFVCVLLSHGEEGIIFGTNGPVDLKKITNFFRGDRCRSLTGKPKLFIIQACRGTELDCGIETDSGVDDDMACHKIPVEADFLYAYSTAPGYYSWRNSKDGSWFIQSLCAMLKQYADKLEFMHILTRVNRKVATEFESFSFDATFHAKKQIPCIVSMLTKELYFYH

Assay [3] has as its target T4, Sentrin-specific protease 7 (Homo sapiens, UniProt Q9BQF6).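 Further: Luminescence-based dose-response confirmation of ultra-high-throughput screening hits, measuring inhibition of SENP7.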
T4 sequence (Q9BQF6 whole entry): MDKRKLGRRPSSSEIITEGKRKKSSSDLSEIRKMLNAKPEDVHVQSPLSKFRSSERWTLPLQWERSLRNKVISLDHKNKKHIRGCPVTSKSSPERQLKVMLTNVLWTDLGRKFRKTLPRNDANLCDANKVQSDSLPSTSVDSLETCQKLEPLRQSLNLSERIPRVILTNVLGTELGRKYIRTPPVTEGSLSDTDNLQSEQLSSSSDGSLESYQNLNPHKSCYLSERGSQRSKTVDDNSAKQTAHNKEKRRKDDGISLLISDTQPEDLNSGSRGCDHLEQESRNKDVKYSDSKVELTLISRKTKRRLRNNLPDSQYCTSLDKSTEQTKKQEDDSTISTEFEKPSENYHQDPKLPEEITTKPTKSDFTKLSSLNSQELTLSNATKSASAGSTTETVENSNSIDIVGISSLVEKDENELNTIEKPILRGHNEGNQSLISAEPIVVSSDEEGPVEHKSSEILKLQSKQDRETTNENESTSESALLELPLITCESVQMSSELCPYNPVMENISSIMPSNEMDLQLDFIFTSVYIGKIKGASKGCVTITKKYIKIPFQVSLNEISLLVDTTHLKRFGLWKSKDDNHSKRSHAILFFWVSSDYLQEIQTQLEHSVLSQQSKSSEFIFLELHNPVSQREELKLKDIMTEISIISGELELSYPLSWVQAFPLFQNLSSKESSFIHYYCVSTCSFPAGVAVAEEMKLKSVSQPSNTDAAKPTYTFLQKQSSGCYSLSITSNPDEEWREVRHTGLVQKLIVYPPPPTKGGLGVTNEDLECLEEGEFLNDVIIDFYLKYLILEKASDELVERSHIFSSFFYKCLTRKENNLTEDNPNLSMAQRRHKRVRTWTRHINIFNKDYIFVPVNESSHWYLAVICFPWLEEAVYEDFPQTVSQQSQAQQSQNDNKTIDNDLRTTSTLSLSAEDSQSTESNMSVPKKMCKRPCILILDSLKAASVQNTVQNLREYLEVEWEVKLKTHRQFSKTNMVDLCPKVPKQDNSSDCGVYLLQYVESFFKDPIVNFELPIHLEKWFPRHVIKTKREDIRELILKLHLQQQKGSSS

Usually IC50 stands for the midpoint of a concentration-inhibition curve. On to `C/C(=N\c1cccc(C)c1)c1sc2ccccc2c1O`, for which the IC50 is 12.7 µM (active) in assay [1], 10.7 µM (active) in assay [2], 17.4 µM (active) at Caspase-3 and 4.75 µM (active) in assay [3].

Take `COc1ccc(/C=N/Nc2cc(N(C)C)nc(N(C)C)n2)cc1`: the IC50 is 5.62 µM (active) in assay [1], 5.78 µM (active) in assay [2], > 100 µM (inactive) on Caspase-3 and 54.5 µM (active) in assay [3].
